# Measured values reported in patent US10987317B2, “Inhibition of glutaminase C” (Cornell University, priority 2009, dated 2021).
# Assays:
# [1] = test system: NIH 3T3 cells transfected with oncogenic Dbl; test: Dbl-induced cellular transformation (focus-forming assays, growth in low serum, soft agar); assay type: cell-based
# Protocol: FIGS. 1A-E illustrate that the small molecule 968 inhibiting cellular transformation. […] Cells were fixed and stained with crystal violet for counting of foci. Right: 968 was serially diluted (10, 5, 2.5, and 1.25 μM) and evaluated for its ability to inhibit focus formation. […] After 6 days, the cells are counted. 100% represents the number of Dbl-transformed cells counted in the absence of 968 (27.5×10^4 cells). Data represent the average of 3 experiments (±s.d.). […] At the indicated times, the cells are counted. Data represent the average of 3 experiments (±s.d.).
# (§1) FIGS. 2A-G illustrate effects of 968 on the transforming activity of constitutively active Rho GTPases and human breast cancer cells. […] Cells are scored after 14 days and plotted as the percentage of the total number of colonies greater than […] in diameter. Data represent the average of 3 experiments (±s.d.). […] Data represent the average of 3 experiments (±s.d.). […] Data represent the average of 3 experiments (±s.d.). […] After 24 hours at 37° C. the migratory cells are fixed, stained with GIEMSA, and counted. Data represent the average of 3 experiments (±s.d.). […] Data represent the average of 3 experiments (±s.d.). […] Data represent the average of 3 experiments (±s.d.). […] Data represent the average of 3 experiments (±s.d.).
# FIGS. 5A-C illustrate comparative abilities of 968 and other benzo[a]phenanthrldinones to inhibit the transforming activity of oncogenic Dbl and H-Ras. […] Histograms show the relative levels of Dbl-induced focus formation for the different treatments, compared to Dbl-induced focus formation measured in the presence of DMSO (i.e. solvent control). Data represent the average of 3 experiments (mean±s.d.). […] Histograms show the relative levels of Ras(G12V)-induced focus formation measured for the different treatments, compared to Ras(G12V)-induced focus formation measured in the presence of DMSO (solvent control). Data represent the average of 3 experiments (mean±s.d.). FIG. 5C NIH 3T3 cells stably expressing H-Ras(G12V) that are cultured in DMEM supplemented with 1% calf serum, with the indicated amounts of 968. After 6 days, cells are trypsinized and counted. 100% represents the number of cells counted in the absence of 968, i.e. 26×10^4 cells. Data represent the average of 3 experiments (mean±s.d.).
# [2] = biological target: T1, V5-tagged GAC in NIH 3T3 cells stably expressing Dbl (Mus musculus, UniProt D3Z7P3); test: GAC phosphorylation by 2-D gel and Western blotting; assay type: cell-based; settings: 10 μM for 48 hours
# T1 construct: expressed in transfected cells; host or cells: NIH 3T3 cells stably expressing oncogenic Dbl
# T1 sequence (D3Z7P3 55-603 isoform D3Z7P3-2 limits assumed): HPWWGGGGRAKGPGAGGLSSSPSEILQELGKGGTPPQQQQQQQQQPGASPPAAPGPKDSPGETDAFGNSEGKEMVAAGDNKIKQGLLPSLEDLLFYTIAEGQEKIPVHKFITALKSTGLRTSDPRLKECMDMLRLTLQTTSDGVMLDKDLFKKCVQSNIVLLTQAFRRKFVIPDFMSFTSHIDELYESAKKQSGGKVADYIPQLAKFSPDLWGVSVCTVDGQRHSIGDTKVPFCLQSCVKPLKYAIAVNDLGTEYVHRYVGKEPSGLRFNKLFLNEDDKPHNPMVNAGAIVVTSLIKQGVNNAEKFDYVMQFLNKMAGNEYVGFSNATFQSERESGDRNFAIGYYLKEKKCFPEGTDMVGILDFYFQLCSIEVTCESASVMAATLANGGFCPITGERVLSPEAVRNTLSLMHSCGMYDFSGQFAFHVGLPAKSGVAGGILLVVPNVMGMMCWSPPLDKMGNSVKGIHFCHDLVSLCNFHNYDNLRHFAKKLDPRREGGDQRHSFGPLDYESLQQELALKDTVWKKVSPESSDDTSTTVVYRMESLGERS
# Protocol: NIH 3T3 cells stably expressing the Dbl oncogene, were transiently transfected with DNA encoding a VS-tagged GAC, and then one sample was treated with 968 (10 μM) for 48 hours. The cells were then harvested and the ectopically expressed GAC was isolated by immunoprecipitation via the V5 tag. The samples were then subjected to 2-D gel analysis to separate the V5-GAC by charge and size, and the V5-tagged GAC was visualized by Western blotting using an anti-V5 antibody. […] Since 968 inhibits the enzymatic activity of GAC, and the phosphorylation appears to be required for its basal enzyme activity, it appears that 968 might be functioning to inhibit glutaminase C by inhibiting the ability of at least one site on glutaminase C to become phosphorylated.
# [3] = test system: NIH 3T3 cells stably expressing Cdc42(F28L), Rac(F28L), RhoC(F30L); test: Transforming activity of constitutively active Rho GTPase mutants; assay type: cell-based; settings: 10 μM
# Protocol: as §1
# HMECs = test: Growth of normal mammary epithelial cells; assay type: cell-based, human; settings: 10 μM, 6 days
structure (smiles),measurement,setting,value
"CN(C)c1ccc(C2Nc3ccc4ccccc4c3C3=C2C(=O)CC(C)(C)C3)cc1Br (stereo not drawn) [Compound 968, 5-[3-bromo-4-(dimethylamino)phenyl]-2,2-dimethyl-2,3,5,6-tetrahydrobenzo[a]]",Dbl-induced colony formation in soft agar,[1]; 10 μM,blocked
same,reversal of 968-inhibition by cell-permeable analog of α-ketoglutarate,"[1]; focus-formation, 10 μM 968 with 7 μM dimethyl α-ketoglutarate",circumvented
same,concentration at which active in blocking Dbl-induced transformation,[1]; focus-forming assays or growth in low serum,1 to 10 µM
same,phosphorylation state of GAC,[2],significant reduction of at least one phosphorylation state
same,colony formation in soft-agar,[3],blocking
same,growth under low serum conditions,[3]; 1% calf serum,blocking
same,growth to high density,"[3]; 10% calf serum, 6 days",blocking
same,invasive activity,"[3]; Matri-gel, 24 hours",inhibiting
same,growth of HMECs,HMECs,little effect
